SMILES strings stand for the structures.

For one experiment, the target named is T1, acyl-CoA:cholesterol acyltransferase (ACAT) (Oryctolagus cuniculus, UniProt G1SFD9).
T1 construct: tissue preparation containing rabbit intestinal microsomes; from tissue; host or cells: rabbit intestinal microsomes
T1 sequence (G1SFD9 1-524): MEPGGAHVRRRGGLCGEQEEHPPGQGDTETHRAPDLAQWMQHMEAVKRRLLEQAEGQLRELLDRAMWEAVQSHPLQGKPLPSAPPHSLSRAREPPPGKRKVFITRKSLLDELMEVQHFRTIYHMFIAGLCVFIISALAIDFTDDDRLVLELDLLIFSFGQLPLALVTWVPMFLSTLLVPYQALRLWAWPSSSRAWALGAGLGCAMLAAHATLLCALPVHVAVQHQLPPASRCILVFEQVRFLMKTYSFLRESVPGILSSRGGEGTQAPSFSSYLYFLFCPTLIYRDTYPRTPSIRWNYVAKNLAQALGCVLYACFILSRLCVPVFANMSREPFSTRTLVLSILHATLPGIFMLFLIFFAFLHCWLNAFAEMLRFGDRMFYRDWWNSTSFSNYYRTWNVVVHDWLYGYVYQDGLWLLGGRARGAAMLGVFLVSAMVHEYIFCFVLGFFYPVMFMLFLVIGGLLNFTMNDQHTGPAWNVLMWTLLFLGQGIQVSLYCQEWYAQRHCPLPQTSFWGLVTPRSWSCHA
Description: In vitro inhibition of ACAT: formation of radiolabeled cholesterol oleate from radiolabeled oleic acid in rabbit intestinal microsomes. The format is biochemical.
Conditions: not given
The text has this:
The test assesses the ability of a test compound to inhibit the acylation of cholesterol by oleic acid by measuring the amount of radiolabeled cholesterol oleate formed from radiolabeled oleic acid in a tissue preparation containing rabbit intestinal microsomes.
In the case of `CCCCCCCCCCC1CN(Cc2ccccc2)P(=O)(OCC(=O)Nc2c(C(C)C)cccc2C(C)C)O1` (racemic) [Example 30, (±)-N-[2,6-Bis(1-methylethyl)phenyl]2-[[5-decyl-3-(phenylmethyl)-1,3,2-oxazaphosphonolidin-2-yl]-oxy]acetamide, P-oxide], the IC50 was 33 nM.

Take `CCCCCCCCCOP(=O)(OCC)N(CC(=O)Nc1c(C(C)C)cccc1C(C)C)Cc1ccccc1` (racemic) [Example 32, (±)-[2-[[2,6 Bis(1-methylethyl)phenyl]amino]-2-oxoethyl](phenylmethyl)phosphoramidic Acid, Ethyl Nonyl Ester]: the IC50 was 14 nM.

`CCCCCCCCCOP(=O)(Oc1ccccc1)N(CC(=O)Nc1c(C(C)C)cccc1C(C)C)Cc1ccccc1` (racemic) [Example 34, (±)-[[[2,6-Bis(1-methylethyl)phenyl]amino]2-oxoethyl]-(phenylmethyl)phosphoramidic Acid, Nonyl Phenyl Ester] gave an IC50 of 23 nM.

Consider `CCCCCCCCCCCCC(C)OP(=O)(Oc1ccccc1)N(CC(=O)Nc1c(C(C)C)cccc1C(C)C)Cc1ccccc1` (racemic) [Example 35, (±)-[2-[[2,6-Bis(1-methylethyl)phenyl]amino]-2-oxoethyl](phenylmethyl)phosphoramidic Acid, 1-Methyltridecyl Phenyl Ester], for which the IC50 stood at 160 nM.

Still in this experiment, the particulars now being: rabbit intestinal microsomes; read-out: IC50 (concentration of test compound required to inhibit cholesteryl oleate formation to 50% of control).
Take `CCCCCCC(C)OP(=O)(CC(=O)Nc1c(C(C)C)cccc1C(C)C)c1ccccc1` (racemic) [Example 11, (±)-2-[2,6-Bis(1-methylethyl)phenyl]amino]-2-oxoethyl]phenylphosphinic Acid, 1-Methylheptyl Ester]: the IC50 was 35 nM.

`CCCCCCCCCCCCOP(=O)(CC(=O)Nc1c(C(C)C)cccc1C(C)C)c1ccccc1` (racemic) [Example 12, (±)-[2-[[2,6-Bis(1-methylethyl)phenyl]amino]-2-oxoethyl]phenylphosphinicAcid, Dodecyl Ester]: the IC50 is 29 nM.

`CCCCCCCCCOP(=O)(c1ccccc1)N(CC(=O)Nc1c(C(C)C)cccc1C(C)C)Cc1ccccc1` (racemic) [Example 31, (±)-N-[2-[2,6-Bis(1-methylethyl)phenyl]amino]-2-oxoethyl]-P-phenyl-N-(phenylmethyl)phosphonamidic Acid, Nonyl Ester]: the IC50 came to 23 nM.

As to `CC(C)c1cccc(C(C)C)c1NC(=O)CP(=O)(c1ccccc1)c1ccccc1` [Example 2, N-2,6-Bis(1-methylethyl)phenyl-2-(diphenylphosphinyl)acetamide], the IC50 turned out to be 2300 nM.

Regarding `CC(C)c1cccc(C(C)C)c1NC(=O)CP(=O)(OCc1ccccc1)OCc1ccccc1` [Example 36, [2-[[2,6-Bis(1-methylethyl)phenyl]amino]-2-oxoethyl]phosphonic Acid, Bis (Phenylmethyl)ester], the IC50 turned out to be 72 nM.

These data come from patent US5208224A, “Phosphorus containing compounds as antihypercholesterolemic and antiatherosclerotic agents” (Warner-Lambert Company, priority 1991, dated 1993).
